The source of these data is US11814379B2, “Cyano quinoline amide compounds as HER2 inhibitors and methods of use” (DANA-FARBER CANCER INSTITUTE, INC., priority 2018, dated 2023).

For test [1], the target named is Ba/F3 cells WT EGFR (Homo sapiens, UniProt P00533). Briefly: Antiproliferative activities (MTS assay), Ba/F3 cells WT EGFR. The class given is cell-based. The conditions noted are these: 72 hours. As for the experimental part:
(§1) Cell growth and growth inhibition were evaluated by […] (MTS) assay. A total of 3,000-4,000 cells were plated per well in 96-well plates and treated with each drug (at a dose range from 1 nM to 10 μM) for 3 days. Each experimental point was conducted in six replicates and all tests were repeated more than three times. IC50 data was obtained from a nonlinear regression model with sigmoidal dose response using GraphPad Prism (GraphPad Software, Inc.).
(§2) All ERBB insertion mutations were generated by using the Quikchange II XL Site-Directed Mutagenesis Kit (Agilent Tech) according to the manufacturer's protocol. The insertion mutations and wildtype form of human EGFR and HER2 were transduced into Ba/F3 cells by retroviral infection followed by treatment of puromycin and withdrawal of interleukin-3 for selection. […] Wild-type EGFR Ba/F3 cells were cultured in the same media supplemented with EGF (10 ng/ml).
(§3) Cell growth inhibition was assessed by MTS assay for Ba/F3 and H1781 cells. A total of 3,000-4,000 cells were seeded for per well in 96-well plates, and were exposed to representative compounds of the application (1 nM to 10 μM) for 72 hours. All experimental points included 6 wells. […] The growth curves were fitted using a nonlinear regression model with sigmoidal dose response.
(§4) Activities of representative compounds of the present application in inhibiting HER2 were tested by MTS assay (for Ba/F3 cells and H1781 cells). For each assay, a total of 3,000-4,000 cells were seeded per well in 96-well plates and were exposed to indicated compounds with a concentration of […] for 72 hours.
In general terms: Tetrazolium dyes change colour on reduction, which living cells bring about.

The target of test [2] is Ba/F3 cells HER2 InsVC (Homo sapiens, UniProt P04626, DELINS776-776VC, cells depend on it). Briefly: Antiproliferative activities (MTS assay), Ba/F3 cells HER2 InsVC. The test is classed as cell-based. Conditions: 72 hours. On the procedure:
as §1, §2, §3, §4

In test [3] the target is WT HER2 (Homo sapiens, UniProt P04626). Briefly: Biochemical activities, WT HER2.
In test [4] the target is WT EGFR (Homo sapiens, UniProt P00533). Briefly: Biochemical activities, WT EGFR.
Test [5] concerns the target Ba/F3 cells HER2 InsWLV (Homo sapiens, UniProt P04626, DELINS774-774WLV, cells depend on it). Briefly: Antiproliferative activities (MTS assay), Ba/F3 cells HER2 InsWLV. The class given is cell-based. The conditions noted are these: 72 hours. As for the experimental part: as §1, §2, §3, §4
Test [6] deals with Ba/F3 cells HER2 InsYVMA (Homo sapiens, UniProt P04626, DUP772-775, cells depend on it). Briefly: Antiproliferative activities (MTS assay), Ba/F3 cells HER2 InsYVMA. The test is classed as cell-based. The conditions noted are these: 72 hours. On the procedure:
as §1, §2, §3, §4

For test [7], the target named is Ba/F3 cells HER2 InsGSP (Homo sapiens, UniProt P04626, DUP778-780, cells depend on it). Briefly: Antiproliferative activities (MTS assay), Ba/F3 cells HER2 InsGSP. The test is classed as cell-based. Conditions: 72 hours. On the procedure:
as §1, §2, §3, §4

Test [8] concerns the target T1, Ba/F3 cells WT HER2 (Homo sapiens, UniProt P04626).
T1 construct: Antiproliferative Activities (Ba/F3 cells) WT HER2; other: Ba/F3 cells, 72 hours, MTS
Put plainly: Antiproliferative activities (MTS assay), Ba/F3 cells WT HER2. The class given is cell-based. Conditions: Ba/F3 cells, 72 hours, MTS. As for the experimental part:
as §1, §2, §3, §4

Test [9] concerns Ba/F3 cells WT HER2. Described as above. The class given is cell-based, human. Conditions: for EGFR EC50/HER2 EC50: Ba/F3 cells, ratio WT EGFR to WT HER2. On the procedure: as §1, §2, §3, §4
For test [10], the system named is H1781 (HER2 InsVC). Put plainly: Antiproliferative activities in lung cancer cells, H1781. The class given is cell-based. The conditions noted are these: NCI-H1781. On the procedure:
as §1
All ERBB insertion mutations were generated by using the Quikchange II XL Site-Directed Mutagenesis Kit (Agilent Tech) according to the manufacturer's protocol. The insertion mutations and wildtype form of human EGFR and HER2 were transduced into Ba/F3 cells by retroviral infection followed by treatment of puromycin and withdrawal of interleukin-3 for selection. Transformed Ba/F3 cells and the NSCLC cell line H1781 (with HER2 insertion VC) were cultured in Roswell Park Memorial Institute-1640 medium (Gibco) with 10% fetal bovine serum and 1% penicillin/streptomycin (Gibco). Wild-type EGFR Ba/F3 cells were cultured in the same media supplemented with EGF (10 ng/ml).
as §3, §4

The test system of test [11] is Calu-3 (Her2 amplification). Briefly: Antiproliferative activities in lung cancer cells, Calu-3. The conditions noted are these: Homo sapiens. The test is classed as cell-based. On the procedure: as §1
Test [12] has as its system H1819 (Her2 amplification). Briefly: Antiproliferative activities in lung cancer cells, H1819. The conditions noted are these: NCI-H1819. The test is classed as cell-based. On the procedure: as §1
Test [13] relates to DFCI429 (Her2 amplification). Put plainly: Antiproliferative activities in lung cancer cells, DFCI429. The test is classed as cell-based. On the procedure:
as §1

The target of test [14] is T2, HER2 insYVMA (A775_G776insYVMA) (Homo sapiens, UniProt P04626, INS775YVMA).
T2 construct: no response in all 13 patients with HER2 insYVMA (A775_G776insYVMA); host or cells: patients' tumours
The conditions noted are these: afatinib as a single agent; dacomitinib phase II trial, 13 patients; cited from earlier work.

Test [15] has as its system HER2 mutations. Conditions: Phase I and II clinical data; cited from earlier work.

WT EGFR, sequence (P00533 25-1210): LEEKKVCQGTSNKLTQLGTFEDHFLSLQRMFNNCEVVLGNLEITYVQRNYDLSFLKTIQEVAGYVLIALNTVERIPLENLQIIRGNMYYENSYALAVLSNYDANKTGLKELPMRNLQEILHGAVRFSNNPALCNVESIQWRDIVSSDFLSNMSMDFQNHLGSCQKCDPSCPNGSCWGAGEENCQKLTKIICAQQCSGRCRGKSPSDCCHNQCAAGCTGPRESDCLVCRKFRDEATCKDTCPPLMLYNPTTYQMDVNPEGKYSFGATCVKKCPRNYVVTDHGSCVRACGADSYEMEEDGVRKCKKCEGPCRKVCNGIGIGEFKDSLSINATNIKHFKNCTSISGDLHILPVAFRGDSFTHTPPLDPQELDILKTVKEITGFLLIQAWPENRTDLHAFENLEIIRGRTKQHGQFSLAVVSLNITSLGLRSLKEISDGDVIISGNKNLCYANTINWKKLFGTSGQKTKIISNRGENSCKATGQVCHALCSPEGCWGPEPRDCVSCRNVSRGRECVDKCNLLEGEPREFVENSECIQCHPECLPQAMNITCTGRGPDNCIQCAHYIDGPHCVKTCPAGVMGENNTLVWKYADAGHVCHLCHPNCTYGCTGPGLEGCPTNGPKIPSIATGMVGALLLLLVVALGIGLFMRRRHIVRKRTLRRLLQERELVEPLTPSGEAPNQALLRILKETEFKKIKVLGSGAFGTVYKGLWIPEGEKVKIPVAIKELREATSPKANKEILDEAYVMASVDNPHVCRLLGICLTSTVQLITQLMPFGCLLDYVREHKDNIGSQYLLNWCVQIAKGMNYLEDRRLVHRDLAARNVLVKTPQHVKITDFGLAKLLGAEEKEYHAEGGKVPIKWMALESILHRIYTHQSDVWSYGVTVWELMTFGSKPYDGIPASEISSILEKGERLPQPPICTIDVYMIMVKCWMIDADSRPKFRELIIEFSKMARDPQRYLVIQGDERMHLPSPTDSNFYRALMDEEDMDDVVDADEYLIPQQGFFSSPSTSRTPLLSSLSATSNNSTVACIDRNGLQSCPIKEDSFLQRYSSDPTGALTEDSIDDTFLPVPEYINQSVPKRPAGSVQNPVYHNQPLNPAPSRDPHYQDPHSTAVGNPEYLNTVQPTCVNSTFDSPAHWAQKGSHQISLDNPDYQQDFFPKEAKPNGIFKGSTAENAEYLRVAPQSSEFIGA
Ba/F3 cells WT EGFR, sequence (P00533 whole entry, stated change not applied): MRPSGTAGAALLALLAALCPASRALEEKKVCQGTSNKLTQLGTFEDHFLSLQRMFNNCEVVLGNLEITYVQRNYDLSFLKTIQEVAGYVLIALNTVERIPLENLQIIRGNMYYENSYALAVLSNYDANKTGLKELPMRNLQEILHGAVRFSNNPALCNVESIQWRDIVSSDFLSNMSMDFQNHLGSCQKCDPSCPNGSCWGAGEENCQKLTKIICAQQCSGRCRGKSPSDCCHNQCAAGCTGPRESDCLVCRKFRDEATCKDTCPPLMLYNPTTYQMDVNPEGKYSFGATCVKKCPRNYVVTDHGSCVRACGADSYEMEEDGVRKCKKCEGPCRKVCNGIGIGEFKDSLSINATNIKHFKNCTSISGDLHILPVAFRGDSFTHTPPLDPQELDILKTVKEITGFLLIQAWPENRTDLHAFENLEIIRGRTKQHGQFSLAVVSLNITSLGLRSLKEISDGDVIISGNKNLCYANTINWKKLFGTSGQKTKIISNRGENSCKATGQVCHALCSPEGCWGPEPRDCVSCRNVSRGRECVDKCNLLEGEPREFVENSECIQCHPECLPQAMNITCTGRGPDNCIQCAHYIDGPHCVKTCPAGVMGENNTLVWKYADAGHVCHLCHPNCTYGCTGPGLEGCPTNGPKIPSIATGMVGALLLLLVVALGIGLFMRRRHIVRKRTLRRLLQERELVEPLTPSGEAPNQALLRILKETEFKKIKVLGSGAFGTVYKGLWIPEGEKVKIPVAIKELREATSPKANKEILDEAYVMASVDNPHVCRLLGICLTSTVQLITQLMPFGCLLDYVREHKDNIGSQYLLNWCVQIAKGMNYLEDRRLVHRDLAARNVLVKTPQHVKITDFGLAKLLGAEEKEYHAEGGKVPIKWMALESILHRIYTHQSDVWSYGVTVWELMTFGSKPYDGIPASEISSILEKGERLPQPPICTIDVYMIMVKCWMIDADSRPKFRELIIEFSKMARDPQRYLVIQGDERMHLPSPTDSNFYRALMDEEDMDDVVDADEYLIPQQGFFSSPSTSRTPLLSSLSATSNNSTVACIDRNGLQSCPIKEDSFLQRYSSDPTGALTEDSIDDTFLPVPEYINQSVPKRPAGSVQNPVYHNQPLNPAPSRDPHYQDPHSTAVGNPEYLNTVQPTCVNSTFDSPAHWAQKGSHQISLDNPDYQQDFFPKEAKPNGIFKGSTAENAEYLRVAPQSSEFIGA

A word on the EC50: it is the concentration that produces a half-maximal response. A low value points to higher potency in that assay. `CCOc1cc2ncc(C#N)c(Nc3ccc(Oc4ccn5ncnc5c4)c(F)c3)c2cc1NC(=O)/C=C/CN(C)C` [Compound 2]: the EC50 is more than 500 nM in test [1]; 250 to 500 nM in test [2]; less than 100 nM in test [3]; 100 to 250 nM in [4]; 100 to 250 nM in [5]; less than 100 nM in test [6]. Further, the 50% effective concentration (EC50) in test [7] and in [8] was less than 100 nM each time. In addition, in test [9], the “EGFR EC50/HER2 EC50” value came to 222.

For `Cc1cc(Nc2ncnc3ccc(NC4=NC(C)(C)CO4)cc23)ccc1Oc1ccn2ncnc2c1` [Irbinitinib, reference compound], the EC50 in [10] is not below 500 nM; in [1] it was more than 500 nM; in [2], more than 500 nM; in test [11] it was not below 500 nM; in test [12], 100 to 250 nM; in [3], less than 100 nM. Moreover, the EC50 was 250 to 500 nM in test [4]; 250 to 500 nM in test [5]; 100 to 250 nM in test [6]; 100 to 250 nM in test [7]; 250 to 500 nM in test [8]; not below 500 nM in test [13]. Moreover, in test [9], the “EGFR EC50/HER2 EC50” value is 18.

In the case of `CCOc1cc2ncc(C#N)c(Nc3ccc(Oc4ccc5ccn(C)c5c4)c(C)c3)c2cc1NC(=O)/C=C/CN(C)C` [Compound 6], the EC50 in test [1] was more than 500 nM; in test [2], less than 100 nM; in test [5], 100 to 250 nM; in test [6] it was less than 100 nM; in test [7], less than 100 nM; in [8], less than 100 nM. Further, the “EGFR EC50/HER2 EC50” value in [9] was found to be 178.

As for `COc1cc2ncnc(Nc3ccc(F)c(Cl)c3)c2cc1NC(=O)/C=C/CN1CCCCC1` [dacomitinib], in [14], the “response of patients with HER2 insYVMA” value is “no response”. In [15], the “response to treatment of patients harboring HER2 mutations” value is “partially responded”.

On to `CN(C)C/C=C/C(=O)Nc1cc2c(Nc3ccc(F)c(Cl)c3)ncnc2cc1O[C@H]1CCOC1` [Afatinib], for which the EC50 in [10] was 100 to 250 nM; in [11], 100 to 250 nM; in test [12], less than 100 nM; in test [13], 100 to 250 nM. The “response of patients with HER2 insYVMA” value in test [14] is “durable responses”. The “response to treatment of patients harboring HER2 mutations” value in [15] is recorded as “partially responded”.

For the compound `CCOc1cc2ncc(C#N)c(Nc3ccc(Oc4ccn5ccnc5c4)c(C)c3)c2cc1NC(=O)/C=C/CN(C)C` [Compound 4], the EC50 in test [1] is more than 500 nM; in [2], less than 100 nM; in test [5], 100 to 250 nM; in test [6], less than 100 nM; in test [7] it was less than 100 nM; in [8], less than 100 nM. Besides, in test [9], the “EGFR EC50/HER2 EC50” value worked out at 49.

As for `CCOc1cc2ncc(C#N)c(Nc3ccc(Oc4ccn5ncnc5c4)c(C)c3)c2cc1NC(=O)/C=C/CN(C)C` [Compound 1, (E)-N-(4-((4-([1,2,4]triazolo[1,5-a]pyridin-7-yloxy)-3-methylphenyl)amino)-3-cyano-7-ethoxyquinolin-6-yl)-4-(dimethylamino)but-2-enamide], the EC50 in test [10] is 100 to 250 nM; in [1] it was 250 to 500 nM; in test [2], less than 100 nM; in [11], less than 100 nM; in [12], less than 100 nM; in test [3] it was less than 100 nM. Besides, the EC50 is 100 to 250 nM in [4]; less than 100 nM in [5]; less than 100 nM in [6]; less than 100 nM in [7]; less than 100 nM in test [8]; 100 to 250 nM in test [13]. The “EGFR EC50/HER2 EC50” value in [9] came to 32. For the same compound, in [9] (FIG. 4 bar graph), the “inhibition of HER2 and its mutant over EGFR” value is given as “selective inhibition”.

`CCOc1cc2ncc(C#N)c(Nc3ccc(Oc4ccn5nccc5c4)c(C)c3)c2cc1NC(=O)/C=C/CN(C)C` [Compound 5]: the EC50 in test [1] is 100 to 250 nM; in test [2], less than 100 nM; in test [5], 100 to 250 nM; in [6] it was less than 100 nM; in [7] it was less than 100 nM; in test [8], less than 100 nM. Moreover, the “EGFR EC50/HER2 EC50” value in test [9] was 6.

On to `CCOc1cc2ncc(C#N)c(Nc3ccc(Oc4ccn5ncnc5c4)c(Cl)c3)c2cc1NC(=O)/C=C/CN(C)C` [Compound 3], for which the EC50 in [1] is 250 to 500 nM; in [2], less than 100 nM; in test [5], less than 100 nM; in test [6] it was less than 100 nM; in test [7], less than 100 nM; in test [8], less than 100 nM. Besides, the “EGFR EC50/HER2 EC50” value in test [9] came to 87.
